Measured values reported in US20200179392A1, “Idelalisib for Treating Proliferative Vitreoretinopathy and Abnormal Intraocular Neovascularization” (priority 2016, published 2020).

Columns and labels:
RPEM cells [1] = assay: Cell proliferation assay, RPEM cells with vitreous; format: cell-based, human; settings: idelalisib 5 μM, 48 hours
Experimental: 3A. RPEM cells were seeded into a 24-well plate at a density of 3×10^4 cells/well. After 8 hours the cells had attached, the medium was changed to either 0.5 ml DMEM (−) or RV supplemented with idelalisib (5 μM) or its vehicle. After treated for 48 hours, the cells were counted with a hemocytometer under a light microscope. RPEM cells were seeded into wells of a 24-well plate at a density of 3×10^4 cells/well in DMEM/F12 with 10% FBS. Following attachment, the cells were treated with DMEM/F12 or RV (1:2 dilution in DMEM/F12) with or without idelalisib (5 μM). On day 3, the cells were trypsin detached from the plates and counted in a hemocytometer. Each experimental condition was assayed in duplicate, and at least three independent experiments were performed^24, 44.

RPEM cells [2] = assay: Cell apoptosis (survival) assay, RPEM cells with vitreous; format: cell-based, human; settings: idelalisib 5 μM, 48 hours, Annexin V/PI FACS
Experimental: 3B. After RPEM cells reached 80% confluence in 60-mm dishes, the cultured medium was changed to either 3 ml DMEM/F12 or RV supplemented with idelalisib (5 μM) or its vehicle (0.1% dimethyl sulfoxide: DMSO). 48 hours later, the detached cells were washed with phosphate-buffer saline (PBS) and stained with fluorescein isothiocyanate (FITC)-conjugated Annexin V and propidium iodide (PI) and then analyzed by fluorescence-activated cell sorting (FACS). A representative raw data of three experiments below the bar graphs is shown. RPEM cells were seeded into 6 cm-dishes at a density of 2×10^5 cells per dish in DMEM/F12+10% FBS. Following attachment, the cells were treated with DMEM/F12 or RV (1:2 dilution in DMEM/F12) with or without idelalisib ([…]). On day 3, the cells were stained with fluorescein isothiocyanate (FITC)-conjugated annexin V and propidium iodide (PI) following the manufacturer's instructions (BD Biosciences, Palo Alto, Calif.). The cells were analyzed by flow cytometry in a Coulter Beckman XL instrument. At least three independent experiments were performed^24, 44.

[3] = tested on: PVR induced by RPEM cells; assay: Experimental PVR in rabbits; format: in vivo, rabbit
Experimental: PVR was induced in the right eyes of two to three-month-old Dutch Belted pigmented rabbits. Briefly, one week after gas vitrectomy, rabbits were intravitreally injected with platelet-rich plasma (PRP, 0.1 ml) and RPEM cells (300,000 cells) supplemented with either idelalisib (10 μM) or its vehicle (0.1% DMSO). Subsequently, the rabbits were examined at the indicated times and PVR stage was evaluated using a double blind approach with an indirect ophthalmoscope through a 30D lens, and then the PVR status for each rabbit was plotted (4A). The […] values are indicated at the top of the figure after a Mann-Whitney analysis. Representative rabbits on day 28 were examined by eletroretinography (ERG) (4B), optical coherence tomography (OCT) (4C) and histological analysis by hematoxylin & eosin stain (4D). The numbers in C and D (0, 2, 3, and 5) denote PVR stages in the examined rabbits. Single arrow points to the retina and double arrows point to cellular fibrotic membranes (4C). Arrowhead and double arrows indicate cellular membranes (4D).
As previously described^1, 55, PVR was induced in right eyes of two-three months old Dutch Belted rabbits purchased from Covance (Denver, Pa.). Briefly, a gas vitrectomy was performed by injecting 0.1 ml of perfluoropropane (C3F8) (Alcon, Fort Worth, Tex.) into the vitreous cavity 4 mm posterior to the corneal limbus. […]

[4] = tested on: angiogenesis (neovascularization) in retina; assay: Mouse model of oxygen-induced retinopathy (OIR); format: in vivo; settings: P12 mice, intravitreal 1 μl of 50 μM, retinas IB4 stained on P17
Experimental: FIGS. 11A-B. Idelalisib inhibits angiogenesis in a mouse model of oxygen-induced retinopathy (OIR). Litters of P12 mice that had been exposed to 75% oxygen for five days were injected intravitreally with 1 μl ilidelalisib (50 μM) or its vehicle (DMSO). A, On P17, whole-mount-retinas were stained with IB4. B, Analysis of neovascularization (NV) areas from the IB4 stained retinas (n=6). The bar graph data are mean±SD of three retinas. “*” indicates significant difference using an unpaired t test. p<0.05.
C57BL/6J litters on postnatal day (P) 7 were exposed to 75% oxygen until P12 in the oxygen chamber (Biospherix). Oxygen concentration was monitored daily using an oxygen sensor (Advanced Instruments, GPR-20F)^58, 59. On P12, the pups were anesthetized by intraperitoneal injection of 50 mg/kg ketamine hydrochloride and 10 mg/kg xylazine. During intravitreal injections, eyelids of P12 pups were separated by incision. Pupils were dilated using a drop of 1% tropicamide and the eyes were treated with topical proparacaine anesthesia. Intravitreous injections were performed under a microsurgical microscope using glass pipettes with a diameter of approximately 150 μm at the tip after the eye were punctured at the upper nasal limbus using a BD insulin syringe with the BD ultra-fine needle. One μl of idelalisib or DMSO was injected. […]

CC[C@H](Nc1ncnc2[nH]cnc12)c1nc2cccc(F)c2c(=O)n1-c1ccccc1 [idelalisib]
effect on vitreous-induced proliferation of RPEM cells (RPEM cells [1]): prevented
effect on vitreous-induced survival of RPEM cells (RPEM cells [2]): prevented
rabbits developing to PVR stage 3 ([3]; idelalisib 10 μM intravitreal with PRP and RPEM cells): one of nine
effect on pathogenesis of PVR ([3]; idelalisib 10 μM intravitreal, days 7, 14, 21 and 28, Mann-Whitney): significantly suppressed
effect on angiogenesis in oxygen-induced retinopathy [4]: abrogated
